What was measured:
VRE 49 [1] = test: Bactericidal activity test (MBC, phenol coefficient measuring method); format: cell-based, vancomycin-resistant enterococci
Experimental: As a test bacterium, the same bacteria species as those of the antibacterial activity test were used; as a medium to be used, a SCD medium (manufactured by Eiken Chemical Co., Ltd.) was used for pre-culture medium; and a heart infusion bouillon medium (manufactured by Eiken Chemical Co., Ltd.) was used as a medium for growing a live bacterium in a test solution after bactericidal treatment. One platinum loop of a test bacterium was inoculated into 20 ml of a medium, and static culture was carried out at 37° C. for 18 to 20 hours, and the cells were adjusted with a sterilized physiological saline to 1×10^7/ml, which was used as a test bacterium solution.
Then, a solution of each compound in methanol was subjected to ½ stepwise dilution with sterilized water, each 5 ml was dispensed into a test tube, 0.5 ml of the previously prepared test bacterium solution was added thereto, and the mixture was blended well. After 1 minute, 3 minutes and 5 minutes has passed, 5 μl of the test solution was collected and inoculated into 2 ml of a heart infusion bouillon medium, this was cultured at 37° C. for 40 to 48 hours, and the presence or absence of growth of a bacterium was determined. A test was performed three times, a minimum concentration at which growth of a bacterium was not recognized two or more times was adopted as a minimal bactericidal concentration (MBC value).
Numerical values in Tables represent MBC expressed in μg/ml unit.

MRSA 97-115 [2] = test: as above; format: cell-based, methicillin-resistant Staphylococcus aureus
How it was run: (§1)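 Using a phenol-coefficient format, the cell suspension (1×10^7/ml) is added to twofold compound dilutions, sampled after 1, 3 and 5 minutes and regrown in heart infusion bouillon at 37° C. The MBC, in μg/ml, is the minimum concentration without growth in two or more of three tests.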

MRSA KM 97-108 [3] = test: as above; format: cell-based, methicillin-resistant Staphylococcus aureus
How it was run: as §1

MRSA KM 97-53 [4] = test: as above; format: cell-based, methicillin-resistant Staphylococcus aureus
How it was run: as §1

E. coli NIHJ JC-2 [5] = test: Antibacterial activity test (MIC); format: cell-based; conditions: Mueller-Hinton Broth, 37° C., 20 to 24 hours
How it was run: (§2)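 Broth dilution MIC per the Japanese Society of Chemotherapy standard method in Mueller-Hinton Broth. Strains were grown statically at 37° C for 16 to 20 hours and diluted in sterile saline to 10^5/ml. Compounds were dissolved in methanol and serially diluted twofold in medium, giving 100 μg/ml and 2^n-fold (n=−10 to 1).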

P. aeruginosa No. 12 [6] = test: Antibacterial activity test (MIC); format: cell-based; conditions: Mueller-Hinton Broth, 37° C., 20 to 24 hours
How it was run: as §2

P. aeruginosa KM 97-5 [7] = test: Antibacterial activity test (MIC); format: cell-based; conditions: Mueller-Hinton Broth, 37° C., 20 to 24 hours
How it was run: as §2

S. aureus 209PJC [8] = test: Antibacterial activity test (MIC); format: cell-based; conditions: Mueller-Hinton Broth, 37° C., 20 to 24 hours
How it was run: as §2

P. aeruginosa PAO-1 [9] = test: Antibacterial activity test (MIC); format: cell-based; conditions: Mueller-Hinton Broth, 37° C., 20 to 24 hours
How it was run: as §2

VRE 49 [10] = test: Antibacterial activity test (MIC); format: cell-based, vancomycin-resistant enterococci; conditions: Mueller-Hinton Broth, 37° C., 20 to 24 hours
Experimental: Regarding compounds obtained in respective Working Examples, in order to investigate antibacterial activity, minimal inhibitory concentration (MIC) was determined according to a standard method of Japanese Society of Chemotherapy.
As a test bacterium, nine kinds of S. aureus 209PJC, MRSA 97-115, MRSA KM 97-53, MRSA KM97-108, VRE 49, E. coli NIHJ JC-2, P. aeruginosa PAO-1, P. aeruginosa No. 12, P. aeruginosa KM97-5 were used and, as a medium, Mueller-Hinton Broth (DIFCO) was used. One platinum loop of a test bacterium was inoculated into 20 ml of a medium, and static culture was carried out at 37° C. for 16 to 20 hours, and then each bacterium species was diluted with a sterilized physiological saline to 10^5/ml, which was used as a test bacterium solution.
Then, each compound was dissolved in methanol, subjected to ½ stepwise dilution with a medium to prepare a medium for measuring sensitivity, and each 2 ml was dispensed into a test tube. A compound concentration in a medium was adjusted to 100 μg/ml and its 2^n-fold (n=−10 to 1).
Numerical values in Tables represent MIC expressed in μg/ml unit.

MRSA 97-115 [11] = test: Antibacterial activity test (MIC); format: cell-based, methicillin-resistant Staphylococcus aureus; conditions: Mueller-Hinton Broth, 37° C., 20 to 24 hours
How it was run: as §2

MRSA KM 97-108 [12] = test: Antibacterial activity test (MIC); format: cell-based, methicillin-resistant Staphylococcus aureus; conditions: Mueller-Hinton Broth, 37° C., 20 to 24 hours
How it was run: as §2

MRSA KM 97-53 [13] = test: Antibacterial activity test (MIC); format: cell-based, methicillin-resistant Staphylococcus aureus; conditions: Mueller-Hinton Broth, 37° C., 20 to 24 hours
How it was run: as §2

E. coli NIHJ JC-2 [14] = test: Bactericidal activity test (MBC, phenol coefficient measuring method); format: cell-based
How it was run: as §1

P. aeruginosa No. 12 [15] = test: as above; format: cell-based
How it was run: as §1

P. aeruginosa KM 97-5 [16] = test: as above; format: cell-based
How it was run: as §1

S. aureus 209PJC [17] = test: as above; format: cell-based
How it was run: as §1

P. aeruginosa PAO-1 [18] = test: as above; format: cell-based
How it was run: as §1

SMILES	minimal bactericidal concentration (MBC) (VRE 49 [1]; 1 min) [µg/mL]	minimal bactericidal concentration (MBC) (VRE 49 [1]; 3 min) [µg/mL]	minimal bactericidal concentration (MBC) (VRE 49 [1]; 5 min) [µg/mL]	minimal bactericidal concentration (MBC) (MRSA 97-115 [2]; 1 min) [µg/mL]	minimal bactericidal concentration (MBC) (MRSA 97-115 [2]; 3 min) [µg/mL]	minimal bactericidal concentration (MBC) (MRSA 97-115 [2]; 5 min) [µg/mL]	minimal bactericidal concentration (MBC) (MRSA KM 97-108 [3]; 1 min) [µg/mL]	minimal bactericidal concentration (MBC) (MRSA KM 97-108 [3]; 3 min) [µg/mL]	minimal bactericidal concentration (MBC) (MRSA KM 97-108 [3]; 5 min) [µg/mL]	minimal bactericidal concentration (MBC) (MRSA KM 97-53 [4]; 1 min) [µg/mL]	minimal bactericidal concentration (MBC) (MRSA KM 97-53 [4]; 3 min) [µg/mL]	minimal bactericidal concentration (MBC) (MRSA KM 97-53 [4]; 5 min) [µg/mL]	minimal inhibitory concentration (MIC) (E. coli NIHJ JC-2 [5]) [µg/mL]	minimal inhibitory concentration (MIC) (P. aeruginosa No. 12 [6]) [µg/mL]	minimal inhibitory concentration (MIC) (P. aeruginosa KM 97-5 [7]) [µg/mL]	minimal inhibitory concentration (MIC) (S. aureus 209PJC [8]) [µg/mL]	minimal inhibitory concentration (MIC) (P. aeruginosa PAO-1 [9]) [µg/mL]	minimal inhibitory concentration (MIC) (VRE 49 [10]) [µg/mL]	minimal inhibitory concentration (MIC) (MRSA 97-115 [11]) [µg/mL]	minimal inhibitory concentration (MIC) (MRSA KM 97-108 [12]) [µg/mL]	also measured
CC(=O)O.CCCCCCCCNC1=NC(C)(C)N=C(NCCCCCC)N1 [compound 68]	25	25	12.5	12.5	6.3	6.3	50	25	25	50	25	25	12.5	50	50	0.8	50	1.6	0.8	1.6	minimal inhibitory concentration (MIC) (MRSA KM 97-53 [13]): 1.6 µg/mL; minimal bactericidal concentration (MBC) (E. coli NIHJ JC-2 [14]; 1 min): 12.5 µg/mL; minimal bactericidal concentration (MBC) (E. coli NIHJ JC-2 [14]; 3 min): 6.3 µg/mL; minimal bactericidal concentration (MBC) (E. coli NIHJ JC-2 [14]; 5 min): 6.3 µg/mL; minimal bactericidal concentration (MBC) (P. aeruginosa No. 12 [15]; 1 min): 3.1 µg/mL; minimal bactericidal concentration (MBC) (P. aeruginosa No. 12 [15]; 3 min): 3.1 µg/mL; minimal bactericidal concentration (MBC) (P. aeruginosa No. 12 [15]; 5 min): 1.6 µg/mL; minimal bactericidal concentration (MBC) (P. aeruginosa KM 97-5 [16]; 1 min): 12.5 µg/mL; minimal bactericidal concentration (MBC) (P. aeruginosa KM 97-5 [16]; 3 min): 6.3 µg/mL; minimal bactericidal concentration (MBC) (P. aeruginosa KM 97-5 [16]; 5 min): 6.3 µg/mL; minimal bactericidal concentration (MBC) (S. aureus 209PJC [17]; 1 min): 12.5 µg/mL; minimal bactericidal concentration (MBC) (S. aureus 209PJC [17]; 3 min): 6.3 µg/mL; minimal bactericidal concentration (MBC) (S. aureus 209PJC [17]; 5 min): 6.3 µg/mL; minimal bactericidal concentration (MBC) (P. aeruginosa PAO-1 [18]; 1 min): 6.3 µg/mL; minimal bactericidal concentration (MBC) (P. aeruginosa PAO-1 [18]; 3 min): 3.1 µg/mL; minimal bactericidal concentration (MBC) (P. aeruginosa PAO-1 [18]; 5 min): 1.6 µg/mL
CC(=O)O.CCCCCCCCCNC1=NC(C)(C)N=C(NCc2ccccc2)N1 [compound 48]	25	12.5	12.5	12.5	6.3	6.3	50	50	25	50	25	25	12.5	25	25	0.8	12.5	0.8	1.6	1.6	minimal inhibitory concentration (MIC) (MRSA KM 97-53 [13]): 0.8 µg/mL; minimal bactericidal concentration (MBC) (E. coli NIHJ JC-2 [14]; 1 min): 6.3 µg/mL; minimal bactericidal concentration (MBC) (E. coli NIHJ JC-2 [14]; 3 min): 6.3 µg/mL; minimal bactericidal concentration (MBC) (E. coli NIHJ JC-2 [14]; 5 min): 3.1 µg/mL; minimal bactericidal concentration (MBC) (P. aeruginosa No. 12 [15]; 1 min): 25 µg/mL; minimal bactericidal concentration (MBC) (P. aeruginosa No. 12 [15]; 3 min): 12.5 µg/mL; minimal bactericidal concentration (MBC) (P. aeruginosa No. 12 [15]; 5 min): 12.5 µg/mL; minimal bactericidal concentration (MBC) (P. aeruginosa KM 97-5 [16]; 1 min): 3.1 µg/mL; minimal bactericidal concentration (MBC) (P. aeruginosa KM 97-5 [16]; 3 min): 3.1 µg/mL; minimal bactericidal concentration (MBC) (P. aeruginosa KM 97-5 [16]; 5 min): 3.1 µg/mL; minimal bactericidal concentration (MBC) (S. aureus 209PJC [17]; 1 min): 12.5 µg/mL; minimal bactericidal concentration (MBC) (S. aureus 209PJC [17]; 3 min): 6.3 µg/mL; minimal bactericidal concentration (MBC) (S. aureus 209PJC [17]; 5 min): 6.3 µg/mL; minimal bactericidal concentration (MBC) (P. aeruginosa PAO-1 [18]; 1 min): 6.3 µg/mL; minimal bactericidal concentration (MBC) (P. aeruginosa PAO-1 [18]; 3 min): 3.1 µg/mL; minimal bactericidal concentration (MBC) (P. aeruginosa PAO-1 [18]; 5 min): 3.1 µg/mL
